Data reported in paper PMC12440824, “Chimeric deubiquitinase engineering reveals structural basis for specific inhibition of the mitophagy regulator USP30” (Nature Structural & Molecular Biology, 2025).

What was measured:
[1] = tested on: USP30 constructs (construct 1, chimeras 1–3); test: Ub–RhoG cleavage enzyme inhibition assay, statements across constructs; assay type: biochemical, human; conditions: addition of hydroxyl group at the tert-butyl group
Method: Enzyme kinetics were performed in black, low-volume, non-binding-surface 384-well plates. For activity assays, 2× Ub–RhoG substrate (final concentration, 50 nM) and 2× enzyme (final concentration, 0.25–32 nM) were prepared in 20 mM HEPES, pH 8.0, 50 mM NaCl, 5 mM DTT, 0.1 mg ml^−1 BSA. Next, 10 µl of 2× enzyme solution was added in triplicate to the plate. The reaction was started by adding 10 µl of 2× substrate solution. For enzyme inhibition assays, 2× substrate (final concentration, 100 nM), 4× enzyme (final concentration, 0.1 nM) and 4× inhibitor (final concentration, 1.6 pM–1.6 μM) were prepared in 50 mM Tris-HCl, pH 8.0, 0.05 mg ml^−1 BSA, 4 mM DTT, 0.01% Tween-20. Inhibitor solution (4×) was added to 4× enzyme solution to create a 2× enzyme–inhibitor mixture. Next, 10 µl of this 2× enzyme–inhibitor mixture was then added to the plate in triplicate, and the plate was incubated at room temperature for 90 min. The reaction was started by adding 10 µl of 2× Ub–RhoG substrate. Substrate cleavage was monitored by measurement of cleaved RhoG fluorescence (excitation, 492 nm; emission, 525 nm) every 30 s for 1 h at 25 °C on a Tecan Spark plate reader. Data were analyzed with GraphPad Prism.

[2] = tested on: recombinant USP30; conditions: read-out: Ub–Rho IC50 against recombinant USP30; cited from earlier work
[3] = tested on: USP30; design: method as in PMID 37385347; conditions: ‘pseudo-covalent’ binding mode proposed; cited from earlier work
[4] = target: USP30^ch3 F157A (Homo sapiens, UniProt Q70CQ3, F157A, form not given); test: Ub–RhoG cleavage enzyme inhibition assay, chimera 3 F157A; assay type: biochemical; conditions: mean n=3
USP30^ch3 F157A, sequence (Q70CQ3 64-502 F157A, form open): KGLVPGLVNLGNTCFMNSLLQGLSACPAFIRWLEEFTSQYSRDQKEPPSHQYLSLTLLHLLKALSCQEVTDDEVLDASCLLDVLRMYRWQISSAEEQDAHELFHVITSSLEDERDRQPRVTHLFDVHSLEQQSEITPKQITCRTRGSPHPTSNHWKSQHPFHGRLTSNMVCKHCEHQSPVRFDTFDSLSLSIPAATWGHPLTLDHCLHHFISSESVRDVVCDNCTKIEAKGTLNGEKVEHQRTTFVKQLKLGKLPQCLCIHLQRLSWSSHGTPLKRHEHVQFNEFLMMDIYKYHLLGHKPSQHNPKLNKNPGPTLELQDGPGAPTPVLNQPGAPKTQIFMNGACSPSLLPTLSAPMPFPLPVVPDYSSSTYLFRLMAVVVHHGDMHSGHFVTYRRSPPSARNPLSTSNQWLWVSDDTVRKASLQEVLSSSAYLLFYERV
USP30^ch3 F157A, sequence (P54578 248-318 partner, form open): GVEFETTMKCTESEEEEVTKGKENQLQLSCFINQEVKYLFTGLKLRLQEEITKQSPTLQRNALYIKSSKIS
USP30^ch3 F157A, sequence (Q9P2H5 821-846 partner, form open): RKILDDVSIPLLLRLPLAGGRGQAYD
Method: (§1) Enzyme kinetics were performed in black, low-volume, non-binding-surface 384-well plates. […] Next, 10 µl of 2× enzyme solution was added in triplicate to the plate. The reaction was started by adding 10 µl of 2× substrate solution. […] Inhibitor solution (4×) was added to 4× enzyme solution to create a 2× enzyme–inhibitor mixture. Next, 10 µl of this 2× enzyme–inhibitor mixture was then added to the plate in triplicate, and the plate was incubated at room temperature for 90 min. The reaction was started by adding 10 µl of 2× Ub–RhoG substrate. […] Data were analyzed with GraphPad Prism.

[5] = tested on: other DUBs; conditions: at 100 µM; cited from earlier work
[6] = target: USP30^ch3 A162S (Homo sapiens, UniProt Q70CQ3, A162S, form not given); test: Ub–RhoG cleavage enzyme inhibition assay, chimera 3 A162S; assay type: biochemical; conditions: mean n=3
USP30^ch3 A162S, sequence (Q70CQ3 64-502 A162S, form open): as the sequence (Q70CQ3 64-502 F157A, form open) above, with A94F, A99S counted along it
USP30^ch3 A162S, sequence (P54578 248-318 partner, form open): as the sequence (P54578 248-318 partner, form open) above
Method: as §1

[7] = target: T1, USP30^ch3 (Homo sapiens, UniProt Q70CQ3); test: Thermal shift assay, USP30 ch3; assay type: binding; conditions: 20 μM inhibitor
T1 sequence (Q70CQ3 64-502): as the sequence (Q70CQ3 64-502 F157A, form open) above, with A94F counted along it
T1 sequence (P54578 248-318 partner): as the sequence (P54578 248-318 partner, form open) above
Method: The thermal stability of USP30 constructs and effects of either inhibitor or Ub-PA binding were determined by thermal shift assays. Inhibitor, Ub-PA and SYPRO orange dye (Sigma, 5,000× stock in DMSO) solutions were prepared in 1× PBS, 4 mM DTT. Inhibitor/Ub-PA was prediluted to 100 µM, and SYPRO orange dye was prediluted to 50× (from the commercial stock). Mixtures of protein, inhibitor/Ub-PA and SYPRO were prepared with inhibitor/Ub-PA at a final concentration of 20 μM, SYPRO at a final concentration of 4× and protein at a final concentration of 2 μM for c1, 4 μM for ch1, ch4 and c2 and 3 μM for ch2 and ch3. Samples were added in triplicate to a white 96-well PCR plate (Bio-Rad). Fluorescence intensity was monitored (excitation, 450–490 nm; emission, 560–580 nm) at a gradient of 20–90 °C (increment of 0.3 °C, hold for 5 s before read) on a real-time PCR system (Bio-Rad).

[8] = target: T1, USP30^ch3; test: Ub–RhoG cleavage enzyme inhibition assay, chimera 3 (WT); assay type: biochemical; conditions: mean n=3
Method: as §1

[9] = target: USP30^ch1 (Homo sapiens, UniProt Q70CQ3); test: Ub–RhoG cleavage enzyme inhibition assay, chimera 1; assay type: biochemical; design: scale not given here; conditions: mean n=3
USP30^ch1, sequence (Q70CQ3 64-502): as the sequence (Q70CQ3 64-502 F157A, form open) above, with A94F counted along it
USP30^ch1, sequence (Q93009 325-395 partner): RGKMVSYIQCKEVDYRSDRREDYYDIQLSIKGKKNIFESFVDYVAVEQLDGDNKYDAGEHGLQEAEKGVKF
Method: as §1

[10] = target: USP30^ch3 I154A (Homo sapiens, UniProt Q70CQ3, I154A, form not given); test: Ub–RhoG cleavage enzyme inhibition assay, chimera 3 I154A; assay type: biochemical; conditions: mean n=3
USP30^ch3 I154A, sequence (Q70CQ3 64-502 I154A, form open): as the sequence (Q70CQ3 64-502 F157A, form open) above, with I91A, A94F counted along it
USP30^ch3 I154A, sequence (P54578 248-318 partner, form open): as the sequence (P54578 248-318 partner, form open) above
Method: as §1

In the case of `CC(C)(CO)NS(=O)(=O)c1ccc(NC(=O)[C@H](Cc2ccccc2)NC(=O)c2ccc(F)cc2)cc1` [NK036], the “decrease in potency relative to compound 39” value [1] is reported as “about one order of magnitude”.

In the case of `CC(C)(C)NS(=O)(=O)c1ccc(NC(=O)[C@H](Cc2ccccc2)NC(=O)c2ccc(F)cc2)cc1` [compound 39], the IC50 [2] is given as 2 to 20 nM, the off-rate [3] is given as “exceptionally slow off-rate” and the “USP30ch3 F157A activity” value ([4]; inhibitor 0.001563 nM) is given as 0.978. The “USP30ch3 F157A activity” value ([4]; inhibitor 0.00625 nM) was 1.043, the “USP30ch3 F157A activity” value ([4]; inhibitor 0.025 nM) was 0.9706 and the “USP30ch3 F157A activity” value ([4]; inhibitor 0.1 nM) was 0.9583. The “USP30ch3 F157A activity” value ([4]; inhibitor 0.39 nM) was 0.8963, the “USP30ch3 F157A activity” value ([4]; inhibitor 1.56 nM) was 0.8924 and the “USP30ch3 F157A activity” value ([4]; inhibitor 6.25 nM) was 0.7707. For the same compound, the “USP30ch3 F157A activity” value ([4]; inhibitor 25 nM) was 0.6122, the “USP30ch3 F157A activity” value ([4]; inhibitor 100 nM) was 0.362 and the “USP30ch3 F157A activity” value ([4]; inhibitor 400 nM) was 0.2241. For the same compound, the “USP30ch3 F157A activity” value ([4]; inhibitor 1600 nM) was 0.2066, the “inhibition of other DUBs in a panel of recombinant enzymes” value [5] was “no other DUB being inhibited” and the “USP30ch3 A162S activity” value ([6]; inhibitor 0.001563 nM) was 0.9737. The “USP30ch3 A162S activity” value ([6]; inhibitor 0.00625 nM) was 1.01, the “USP30ch3 A162S activity” value ([6]; inhibitor 0.025 nM) was 0.9776 and the “USP30ch3 A162S activity” value ([6]; inhibitor 0.1 nM) was 0.9451. The “USP30ch3 A162S activity” value ([6]; inhibitor 0.39 nM) was 0.896, the “USP30ch3 A162S activity” value ([6]; inhibitor 1.56 nM) was 0.93 and the “USP30ch3 A162S activity” value ([6]; inhibitor 6.25 nM) was 0.7972. The “USP30ch3 A162S activity” value ([6]; inhibitor 25 nM) was 0.6308, the “USP30ch3 A162S activity” value ([6]; inhibitor 100 nM) was 0.4027 and the “USP30ch3 A162S activity” value ([6]; inhibitor 400 nM) was 0.2411. The “USP30ch3 A162S activity” value ([6]; inhibitor 1600 nM) was 0.2091, the “Tm in presence of compound, USP30^ch3” value [7] was 61.5 °C and the “USP30ch3 WT activity (Fig. 5d / ED Fig. 7e series)” value ([8]; inhibitor 0.001563 nM) was 0.9251. The “USP30ch3 WT activity (Fig. 5d / ED Fig. 7e series)” value ([8]; inhibitor 0.00625 nM) was 0.867, the USP30ch3 activity ([8]; inhibitor 0.00625 nM) was 0.8546 and the “USP30ch3 WT activity (Fig. 5d / ED Fig. 7e series)” value ([8]; inhibitor 0.025 nM) was 0.8429. The USP30ch3 activity ([8]; inhibitor 0.025 nM) was 0.7063, the “USP30ch3 WT activity (Fig. 5d / ED Fig. 7e series)” value ([8]; inhibitor 0.1 nM) was 0.705 and the USP30ch3 activity ([8]; inhibitor 0.1 nM) was 0.6531. For the same compound, the “USP30ch3 WT activity (Fig. 5d / ED Fig. 7e series)” value ([8]; inhibitor 0.39 nM) was 0.5733, the USP30ch3 activity ([8]; inhibitor 0.39 nM) was 0.4658 and the “USP30ch3 WT activity (Fig. 5d / ED Fig. 7e series)” value ([8]; inhibitor 1.56 nM) was 0.4495. The USP30ch3 activity ([8]; inhibitor 1.56 nM) was 0.3269, the “USP30ch3 WT activity (Fig. 5d / ED Fig. 7e series)” value ([8]; inhibitor 6.25 nM) was 0.2804 and the USP30ch3 activity ([8]; inhibitor 6.25 nM) was 0.1958. The “USP30ch3 WT activity (Fig. 5d / ED Fig. 7e series)” value ([8]; inhibitor 25 nM) was 0.1378, the USP30ch3 activity ([8]; inhibitor 25 nM) was 0.09897 and the “USP30ch3 WT activity (Fig. 5d / ED Fig. 7e series)” value ([8]; inhibitor 100 nM) was 0.05989. The USP30ch3 activity ([8]; inhibitor 100 nM) was 0.03567, the “USP30ch3 WT activity (Fig. 5d / ED Fig. 7e series)” value ([8]; inhibitor 400 nM) was 0.03092 and the USP30ch3 activity ([8]; inhibitor 400 nM) was 0.008529. The “USP30ch3 WT activity (Fig. 5d / ED Fig. 7e series)” value ([8]; inhibitor 1600 nM) was 0.02661, the USP30ch3 activity ([8]; inhibitor 1600 nM) was -0.001344 and the USP30ch3 activity ([8]; inhibitor 0.0015625 (0.001563) nM) was 0.9081. For the same compound, the USP30ch1 activity ([9]; inhibitor 0.0015625 nM) was 0.9737, the USP30ch1 activity ([9]; inhibitor 0.00625 nM) was 0.9837 and the USP30ch1 activity ([9]; inhibitor 0.025 nM) was 0.8913. It also gave a USP30ch1 activity ([9]; inhibitor 0.1 nM) of 0.7529, a USP30ch1 activity ([9]; inhibitor 0.39 nM) of 0.5726 and a USP30ch1 activity ([9]; inhibitor 1.56 nM) of 0.3796. It also gave a USP30ch1 activity ([9]; inhibitor 6.25 nM) of 0.2212, a USP30ch1 activity ([9]; inhibitor 25 nM) of 0.1115 and a USP30ch1 activity ([9]; inhibitor 100 nM) of 0.04824. For the same compound, the USP30ch1 activity ([9]; inhibitor 400 nM) was 0.02114, the USP30ch1 activity ([9]; inhibitor 1600 nM) was 0.0058 and the “USP30ch3 I154A activity” value ([10]; inhibitor 0.001563 nM) was 1.024. For the same compound, the “USP30ch3 I154A activity” value ([10]; inhibitor 0.00625 nM) was 1.056, the “USP30ch3 I154A activity” value ([10]; inhibitor 0.025 nM) was 0.9999 and the “USP30ch3 I154A activity” value ([10]; inhibitor 0.1 nM) was 1.007. For the same compound, the “USP30ch3 I154A activity” value ([10]; inhibitor 0.39 nM) was 0.9637, the “USP30ch3 I154A activity” value ([10]; inhibitor 1.56 nM) was 0.9166 and the “USP30ch3 I154A activity” value ([10]; inhibitor 6.25 nM) was 0.8225. The “USP30ch3 I154A activity” value ([10]; inhibitor 25 nM) was 0.6606, the “USP30ch3 I154A activity” value ([10]; inhibitor 100 nM) was 0.4173 and the “USP30ch3 I154A activity” value ([10]; inhibitor 400 nM) was 0.274. The “USP30ch3 I154A activity” value ([10]; inhibitor 1600 nM) was 0.2192.
